Experimental findings from US6514734B1, “Polybifunctional reagent having a polymeric backbone and latent reactive moieties and bioactive groups” (Surmodics, Inc., priority 1997, dated 2003) are described below.

One data set has as its system CPAE cells. As to the kind of experiment: Cell growth activity of immobilized peptides (MTT). It counts as cell-based, Calf. The conditions noted are these: for growth on peptide polymers, times that observed on uncoated PS / growth on adsorbed peptides, times that observed on uncoated PS: wet immobilization protocol; for relative cell growth score, Immobil. Peptide Polymer: illuminated, dry immobilization protocol; for relative cell growth score, Immobil. Peptide Polymer / relative cell growth score, Adsorbed Peptide Reagent: relative to uncoated; for relative cell growth score, Adsorbed Peptide Reagent: nonilluminated. The method, then:
The growth assays were conducted in 24-well PS culture plates. When PU and SR were evaluated, discs of each material (with or without coatings) were placed in the bottoms of the culture plate wells. When PS was evaluated, the bottoms of the wells were coated. For each assay, uncoated and peptide coated biomaterials (PS, PU, and SR) were seeded with CPAE cells at 1500 cells per well and allowed to proliferate in vitro for 4 to 7 days. Then, the media was aspirated and the cell growth was quantitated using MTT dye.
The following table summarizes results that compared cell growth on uncoated substrates, adsorbed peptides, and peptide polymers. As with the attachment assays, the relative numbers of cells growing on each peptide coated biomaterial was divided by the number of cells growing on the uncoated (UC) biomaterials to obtain a relative cell growth score. Each value represents the average of 1 to 4 different experiments, with each experiment being conducted with 3 or 4 replicates. The dry immobilization protocol described herein was used to immobilize all peptides evaluated. Immobil. Peptide Polymer refers to illuminated peptide polymer. Adsorbed Peptide Reagent refers to non illuminated peptide reagent. ND=not determined.
In addition to the peptides shown in the table above, C/H-II and HEP-III were also evaluated for growth on PS. With these two peptides, growth on adsorbed peptides was 1.0 and 1.1 times that observed on uncoated PS, and growth on peptide polymers was 10.5 and 13 times that observed on uncoated PS. These two peptides (polymers and reagent controls) were immobilized via the wet immobilization protocol. The results with C/H-II and HEP-III are the averages of 1and 2 experiments, respectively, with each experiment being conducted with 4 replicates.

For data set [1], the system named is Calf pulmonary artery endothelial (CPAE) cells. The data set can be described thus: Cell attachment activity of immobilized peptides (MTT). It counts as cell-based. Set-up: key: cells attached to coated ÷ cells attached to uncoated (MTT). The conditions noted are these: relative to uncoated; for relative cell attachment score, Immobil. Peptide Polymer: illuminated; for relative cell attachment score, Adsorbed Peptide Reagent: nonilluminated. The method, then:
Calf pulmonary artery endothelial (CPAE) cells were purchased from ATCC (American Type Culture Collection, Rockville, Md.) and cultured as indicated by ATCC. The attachment assays were conducted in 48-well PS culture plates. When PU and SR were evaluated, discs of each material (with or without coatings) were placed in the bottoms of the culture plate wells. When PS was evaluated, the bottoms of the wells were coated. For each assay, uncoated and peptide coated biomaterials (PS, PU, and SR) were seeded at 50,000 cells per well in serum free media containing 2 mg/ml of bovine serum albumin (BSA fraction V, from Sigma Chemical Company, St. Louis, Mo.). The cells were allowed to attach to each biomaterial for two hours. Then the unattached cells were removed by aspiration, and the wells were rinsed twice with Hank's Balanced Salt Solution (Celox Corp., Hopkins, Minn.). Finally, the attached cells were quantitated by the addition of culture media containing a metabolic dye, MTT [3-(4,5-dimethylthiazol-2-yl)-2,5-diphenyltetrazolium bromide] which is converted from a yellow tetrazolium salt into an insoluble, purple formazan in the presence of viable cells. After a two hour incubation in culture media containing MTT, the media was removed, and the formazan dye that had been deposited inside the viable cells was solubilized (with acidic isopropanol) and read on a spectrophotometer at 570 nm. The absorbance of the formazan is directly proportional to the number of attached, viable cells present per well.
The following table summarizes results of cell attachment assays comparing immobilized peptide polymers and adsorbed peptide reagent controls. In each case, the relative numbers of cells that attached to the peptide-coated biomaterials (as determined by MTT dye) were divided by the number of cells that attached to the uncoated (UC) biomaterials to obtain a relative cell attachment score. Each value represents the average of 1 to 4 different experiments, with each experiment being conducted with 3 or 4 replicates. The peptides were immobilized onto PS using the wet immobilization protocol described herein and the peptides were immobilized onto SR and PU via the dry immobilization protocol. Immobil. Peptide Polymer refers to illuminated peptide polymer. Adsorbed Peptide Reagent refers to nonilluminated peptide reagent. ND=not determined.

A further data set deals with immunoglobulin G (IgG). As to the kind of experiment: Activity of protein A polymer coatings: binding and elution of IgG from rabbit serum. The conditions noted are these: for Fold greater IgG on protein A coating: versus uncoated control. The method, then:
Protein A is a bacterial protein that binds specifically to the Fc region of immunoglobulin G (IgG) molecules. The activity of the protein A coating on each type of membrane was evaluated by assaying for binding by added IgG. Uncoated membranes were used as controls. For this assay, 2 ml of rabbit serum was diluted 1:5 in PBS and perfused through the coated membranes at 2-3 ml/min. The membranes were then washed with PBS to remove unbound IgG. The bound IgG was then eluted with 0.1 M glycine in 2% acetic acid. The amount of eluted IgG was determined by measuring the absorbance of the eluant at 280 nm and using an extinction coefficient (ε280) of 1.4 ml/cm-mg to calculate the mg of eluted IgG. Also the IgG that eluted from each membrane type was evaluated for purity by reduced SDS PAGE analysis. With the biomaterials coated with protein A polymer, the eluted protein was greater than 90% light and heavy chains of IgG. In contrast, the major protein that eluted from uncoated controls was albumin.
Three discs of each type (PSO or RC) were placed in a MAC-25 holder and evaluated using this procedure.

The subject of data set [2] is biotin derivatized horseradish peroxidase (biotin-HRP). The data set can be described thus: Streptavidin polymer coating on glass rods: binding of biotin-HRP. The conditions noted are these: for Absorbance of Biotin-HRP: glass rods. The procedure:
(§1) The organosilane primed glass rods were dipped into a solution of streptavidin polymer for 30 seconds. The glass rods were removed from the solution, allowed to air dry, and illuminated for 30 seconds with a Dymax lamp. Adsorption controls were prepared via the same protocol, except that they were not illuminated. Both type of coated rods were washed with PBS containing 0.05% Tween 20 to remove nonadherent streptavidin polymer.
(§2) Streptavidin is a receptor that binds strongly to biotin as its ligand. The activity of streptavidin polymer coating was evaluated by quantifying the binding of added biotin derivatized horseradish peroxidase (biotin-HRP, obtained from Pierce Chemical Company, Rockford, Ill.). The glass rods were incubated for one hour in a 9 μg/ml solution of biotin-HRP. The binding of underivatized HRP (added at 9 μg/mi) was evaluated as a control for nonspecific binding of HRP to the glass rods. The rods were then washed with PBS containing 0.05% Tween 20 to remove nonbound HRP, and the relative activity of bound HRP was evaluated with a TMB peroxidase substrate system (Kirkegaard and Perry Laboratory, Inc., Gaithersburg, Md.). HRP catalyzes the oxidation of TMB and produces a color that is quantitated spectrophotometrically at 405 nm. Each result is the average of 3 determinations.

A further data set addresses T1, underivatized HRP (Armoracia rusticana, UniProt P00433).
T1 sequence (P00433 31-338): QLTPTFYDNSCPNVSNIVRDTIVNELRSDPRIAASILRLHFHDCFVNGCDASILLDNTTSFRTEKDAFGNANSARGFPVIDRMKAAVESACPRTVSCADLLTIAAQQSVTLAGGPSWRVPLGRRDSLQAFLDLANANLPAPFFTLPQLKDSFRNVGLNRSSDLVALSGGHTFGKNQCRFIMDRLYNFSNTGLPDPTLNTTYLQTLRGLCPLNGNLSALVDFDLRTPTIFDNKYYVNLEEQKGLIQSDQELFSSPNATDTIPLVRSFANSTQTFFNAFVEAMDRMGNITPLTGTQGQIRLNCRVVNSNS
As to the kind of experiment: Streptavidin polymer coating on glass rods: nonspecific binding of underivatized HRP. The method, then:
as §1, §2

[3] abbreviates: Polyurethane, dry immobilization protocol.
Where [4] appears, read: Silicone Rubber, dry immobilization protocol.

Where no end group is shown, it is not given here.

Turning to “C/H-II polymer: photoreactive polyacrylamide copolymer of C/H-II peptide monomer (SEQ ID NO: 10), BBA-APMA and acrylamide (CKNNQKSEPLIGRKKT; also: photoreactive polyacrylamide copolymer with BBA-APMA and acrylamide)”, the “growth on peptide polymers, times that observed on uncoated PS” value in the data set on CPAE cells was 10.5 times.

For the substance “C/H-V polymer: photoreactive polyacrylamide copolymer of C/H-V peptide monomer (SEQ ID NO: 9), BBA-APMA and acrylamide (CKKWQPPRARI; also: photoreactive polyacrylamide copolymer with BBA-APMA and acrylamide)”, the “relative cell attachment score, Immobil. Peptide Polymer” value in data set [1] (setting [3]) is reported as 1.4; in data set [1] (setting [4]), 1.3. The “relative cell growth score, Immobil. Peptide Polymer” value in the data set with CPAE cells (Polystyrene, 4 to 7 days) is 11.3; in the data set on CPAE cells (Polyurethane), 3.9; in the data set with CPAE cells (Silicone Rubber) it was 1.0.

For the substance “CKKWQPPRARI [C/H-V reagent control, C/H-V peptide not incorporated into polymer, fibronectin-derived, reference compound]”, the “relative cell attachment score, Adsorbed Peptide Reagent” value in data set [1] (Silicone Rubber) worked out at 0.4. Further, the “relative cell growth score, Adsorbed Peptide Reagent” value worked out at 1.0 in the data set with CPAE cells (Polystyrene), 0.7 in the data set with CPAE cells (Polyurethane) and 2.0 in the data set on CPAE cells (Silicone Rubber).

Regarding “Cys Lys Asn Asn Gln Lys Ser GIu Pro Leu Ile Gly Arg Lys Lys Thr [C/H-II reagent control, reference compound]”, the “growth on adsorbed peptides, times that observed on uncoated PS” value in the data set on CPAE cells is 1.0 times.

Regarding “Cys Lys Gly Glu Phe Try Phe Asp Leu Arg Leu Lys Gly Asp Lys [HEP-III reagent control, reference compound]”, the “growth on adsorbed peptides, times that observed on uncoated PS” value in the data set on CPAE cells is on record as 1.1 times.

With “F-9 polymer: photoreactive polyacrylamide copolymer of F-9 peptide monomer (SEQ ID NO:11), BBA-APMA and acrylamide (RYVVLPRPVCFEKK; also: photoreactive polyacrylamide copolymer with BBA-APMA and acrylamide)”, the “relative cell attachment score, Immobil. Peptide Polymer” value amounted to 5.7 in data set [1] (Polystyrene, wet immobilization protocol); 1.9 in data set [1] (setting [3]); 0.9 in data set [1] (setting [4]). Besides, the “relative cell growth score, Immobil. Peptide Polymer” value in the data set on CPAE cells (Polystyrene, 4 to 7 days) is on record as 14.8; with CPAE cells (Polyurethane), 7.7; in the data set on CPAE cells (Silicone Rubber), 2.4.

Regarding “GRGDSPKKC [RGD reagent control, reference compound]”, the “relative cell attachment score, Adsorbed Peptide Reagent” value in data set [1] (Polystyrene) amounted to 1.4; in data set [1] (Silicone Rubber), 1.1. Further, the “relative cell growth score, Adsorbed Peptide Reagent” value in the data set on CPAE cells (Polystyrene) was 1.2; in the data set with CPAE cells (Polyurethane), 1.7; with CPAE cells (Silicone Rubber) it was 1.1.

Consider “HEP-III polymer: photoreactive polyacrylamide copolymer of HEP-III peptide monomer (SEQ ID NO: 12), BBA-APMA and acrylamide (CKGEFYFDLRLKGDK; also: photoreactive polyacrylamide copolymer with BBA-APMA and acrylamide)”, for which the “growth on peptide polymers, times that observed on uncoated PS” value in the data set on CPAE cells is on record as 13 times.

Regarding “RYVVLPRPVCFEKK [F-9 reagent control, F-9 peptide not incorporated into polymer, laminin-derived, reference compound]”, the “relative cell attachment score, Adsorbed Peptide Reagent” value in data set [1] (Polystyrene) amounted to 0.8. In addition, the “relative cell growth score, Adsorbed Peptide Reagent” value with CPAE cells (Polystyrene) is 1.0; with CPAE cells (Polyurethane), 1.7; in the data set on CPAE cells (Silicone Rubber), 1.7.

Turning to “protein A polymer: photoreactive polyacrylamide containing recombinant staphylococcal protein A ligands”, the IgG eluted with immunoglobulin G (IgG) (Polysulfone membrane, average of 10 cycles) is reported as 0.680 mg/disc; in the data set on immunoglobulin G (IgG) (Regenerated cellulose membrane, average of 3 cycles), 0.383 mg/disc. In addition, the “Fold greater IgG on protein A coating” value with immunoglobulin G (IgG) (Polysulfone) is recorded as 34; in the data set on immunoglobulin G (IgG) (Regenerated cellulose), 64.

“streptavidin polymer: photoreactive polyacrylamide containing streptavidin ligands”: in data set [2] (biotin-HRP added), the “peroxidase activity of adsorbed, fold less than covalent” value stood at 3.5 fold. Further, the “Absorbance of Biotin-HRP” value in data set [2] (adsorbed (nonilluminated)) turned out to be 0.285; in data set [2] (covalent (photoimmobilized)), 1.005. The “Absorbance of HRP” value is 0.065 in the data set with underivatized HRP (adsorbed (nonilluminated)) and 0.056 with underivatized HRP (covalent (photoimmobilized)).
